Source: patent US11160797B2, “Pyridinone derivatives and their use as selective ALK-2 inhibitors” (NOVARTIS AG, priority 2017, dated 2021)

Key:
[1] = biological target: T1, wild-type ALK2 (aa172-499) (Homo sapiens (Human), UniProt Q04771); assay: ADPGlo biochemical autophosphorylation assay, ALK2; settings: 15 uM ATP
ALK5 (aa162-503) = ALK5 (aa162-503) (Homo sapiens (Human), UniProt P36897); assay: Caliper biochemical peptide phosphorylation assay, ALK5; settings: 15 uM ATP
Description: For all biochemical assays, human recombinant proteins were expressed in and purified from baculo virus transfected insect cells. The constructs comprised the GS-domain and kinase domain of wild-type ALK2 (aa172-499), ALK2 FOP mutant (aa172-499 R206H), ALK3 (aa198-525), ALK5 (aa162-503) and ALK6 (aa168-495).
A kinase selectivity panel which measures substrate peptide phosphorylation was set-up for wild-type ALK2 (aa172-499), ALK2 FOP mutant (aa172-499 R206H), ALK1 (aa166-493), ALK5 (aa162-503) and ALK6 (aa168-495). The technology used for the described assay is based on the separation and quantification of substrate and product in an electrical field. In the course of the kinase reaction the peptide substrate is phosphorylated by a kinase. […] Due to this difference in charge the phosphorylated und unphosphorylated peptides migrate with different velocities in an electrical field.
In the applied method, this separation takes place inside a chip that contains a complex capillary system for simultaneous analysis of 12 samples (“LabChip EZ Reader 12-sipper chip”, Caliper Technologies Corp., Mountain View, USA). In order to allow the detection and quantification of the peptides in the capillary system, the peptides carry a fluorescent label (fluorescein). With this label the peptides can be quantified by fluorescence intensity through the instruments laser and detection system (LC3000, Caliper Life Sciences).
The assays were performed in 384-well, low volume microtiter assay plates in a final reaction volume of 9 ul. Dose-response curves were generated by incubating 10 nM of each kinase together with 2 uM of the fluorescently labeled substrate peptide 5-Fluo-Ahx-[…]-T-[…]-amid (10 mM stock solution in DMSO) in 50 mM Hepes pH 7.5, 0.02% Tween 20, 0.02% BSA, 1 mM DTT, 10 uM Na3VO4, 10 mM ß-Glycerolphosphate, 1 mM MgCl2, 12 mM MnCl2 (ALK1 and ALK6 7 mM) and 15 uM ATP for 60 min at 30° C. in the presence or absence of compound diluted in DMSO.
Kinase reactions were terminated by adding 15 ul STOP buffer (100 mM HEPES pH 7.5, 5% DMSO, 0.1% Caliper coating reagent, 10 mM EDTA, and 0.015% Brij35.
Plates with terminated kinase reactions were transferred to the Caliper LC3000 workstation (Caliper Technologies Corp., Mountain View, USA) for reading. The relative amount of phosphorylated peptide r, was calculated using the heights of the substrate peak, s, and the product peak, p:r=p/(p+s).
IC50 values for a given antagonist correspond to the compound concentration needed to inhibit half of the maximum signal of the kinase reaction.

ALK1 (aa166-493) = ALK1 (aa166-493) (Homo sapiens (Human), UniProt P37023); assay: Caliper biochemical peptide phosphorylation assay, ALK1; settings: 15 uM ATP
Chain of ALK1 (aa166-493) (P37023 166-493): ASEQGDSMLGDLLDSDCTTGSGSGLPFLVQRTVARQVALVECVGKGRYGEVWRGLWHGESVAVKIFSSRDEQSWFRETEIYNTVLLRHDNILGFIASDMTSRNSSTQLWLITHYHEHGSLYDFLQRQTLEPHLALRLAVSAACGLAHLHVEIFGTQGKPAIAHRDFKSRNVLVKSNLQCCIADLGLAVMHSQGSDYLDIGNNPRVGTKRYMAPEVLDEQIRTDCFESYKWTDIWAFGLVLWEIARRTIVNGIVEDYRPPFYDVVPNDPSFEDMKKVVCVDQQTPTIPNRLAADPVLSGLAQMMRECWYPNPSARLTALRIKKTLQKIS

[2] = test system: HuH7 cells, BMP response element (BRE) luciferase reporter, BMP6 stimulated; assay: BMP signaling reporter gene assay; assay type: cell-based; settings: Homo sapiens, Huh-7; BMP6 100 ng/ml; read-out: MSD HuH7 cell BMP reporter IC50
[3] = biological target: ALK2 FOP mutant (aa172-499 R206H) (Homo sapiens (Human), UniProt Q04771, R206H); assay: Caliper biochemical peptide phosphorylation assay, ALK2 FOP; settings: Caliper peptide phosphorylation, R206H, 15 uM ATP; read-out: ALK2 FOP EPK IC50
Chain of ALK2 FOP mutant (aa172-499 R206H) (Q04771 172-499 R206H): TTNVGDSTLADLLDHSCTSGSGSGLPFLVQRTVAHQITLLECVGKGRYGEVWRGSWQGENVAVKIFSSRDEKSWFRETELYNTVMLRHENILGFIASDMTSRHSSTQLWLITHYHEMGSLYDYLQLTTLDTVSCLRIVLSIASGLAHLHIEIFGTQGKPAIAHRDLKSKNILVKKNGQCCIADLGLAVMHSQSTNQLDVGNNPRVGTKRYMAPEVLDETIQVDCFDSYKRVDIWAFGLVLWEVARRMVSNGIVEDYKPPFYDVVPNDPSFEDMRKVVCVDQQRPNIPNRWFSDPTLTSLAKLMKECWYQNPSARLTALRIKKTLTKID

ALK6 (aa168-495) = ALK6 (aa168-495) (Homo sapiens (Human), UniProt O00238); assay: Caliper biochemical peptide phosphorylation assay, ALK6; settings: 15 uM ATP
Chain of ALK6 (aa168-495) (O00238 168-495): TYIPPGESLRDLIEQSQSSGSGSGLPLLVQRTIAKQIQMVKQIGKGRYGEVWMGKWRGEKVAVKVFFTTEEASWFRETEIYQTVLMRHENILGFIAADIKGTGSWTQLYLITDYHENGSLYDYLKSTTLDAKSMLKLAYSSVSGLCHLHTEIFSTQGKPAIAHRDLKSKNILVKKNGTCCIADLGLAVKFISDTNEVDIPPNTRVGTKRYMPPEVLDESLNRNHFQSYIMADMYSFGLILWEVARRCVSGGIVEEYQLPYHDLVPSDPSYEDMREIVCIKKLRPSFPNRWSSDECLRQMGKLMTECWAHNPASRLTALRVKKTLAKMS

[4] = biological target: T1, wild-type ALK2 (aa172-499); assay: Caliper biochemical peptide phosphorylation assay, ALK2; settings: Caliper peptide phosphorylation, 15 uM ATP; read-out: ALK2 IC50
ALK3 (aa198-525) = ALK3 (aa198-525) (Homo sapiens (Human), UniProt P36894); assay: ADPGlo biochemical autophosphorylation assay, ALK3; settings: 15 uM ATP
Chain of ALK3 (aa198-525) (P36894 198-525): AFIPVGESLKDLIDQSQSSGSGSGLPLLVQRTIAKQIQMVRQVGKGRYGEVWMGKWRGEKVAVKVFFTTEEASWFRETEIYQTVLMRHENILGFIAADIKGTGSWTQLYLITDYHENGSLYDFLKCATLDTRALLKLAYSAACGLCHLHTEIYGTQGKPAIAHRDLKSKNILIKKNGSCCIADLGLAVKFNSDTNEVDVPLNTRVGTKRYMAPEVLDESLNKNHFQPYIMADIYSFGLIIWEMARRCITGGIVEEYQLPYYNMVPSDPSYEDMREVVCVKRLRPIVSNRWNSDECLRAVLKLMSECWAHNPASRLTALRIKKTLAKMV

T1 sequence (Q04771 172-499): as the sequence (Q04771 172-499 R206H) above, with H35R counted along it
Chain of ALK5 (aa162-503) (P36897 162-503): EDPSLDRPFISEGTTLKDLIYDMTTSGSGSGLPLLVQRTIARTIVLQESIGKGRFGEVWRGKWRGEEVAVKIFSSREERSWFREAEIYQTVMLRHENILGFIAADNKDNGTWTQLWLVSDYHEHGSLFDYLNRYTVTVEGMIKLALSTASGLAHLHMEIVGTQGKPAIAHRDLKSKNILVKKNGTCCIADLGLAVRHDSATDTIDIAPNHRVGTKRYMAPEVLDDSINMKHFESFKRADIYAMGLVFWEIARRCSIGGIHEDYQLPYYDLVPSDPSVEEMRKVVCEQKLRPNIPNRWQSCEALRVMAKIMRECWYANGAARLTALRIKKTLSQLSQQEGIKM

IC50 [1] [nM]	IC50 (ALK5 (aa162-503)) [nM]	IC50 (ALK1 (aa166-493)) [nM]	IC50 [2] [nM]	IC50 [3] [nM]	IC50 (ALK6 (aa168-495)) [nM]	IC50 [4] [nM]	IC50 (ALK3 (aa198-525)) [nM]	Compound
160	5000	890	210	100	1250	120	1100	CC(C)n1cc(-c2cncc(-c3ccc4c(c3)CC(=O)N4CCO)c2)ccc1=O [Example 45, 1-(2-hydroxyethyl)-5-(1′-isopropyl-6′-oxo-1′,6′-dihydro-[3,3′-bipyridin]-5-yl)indolin-2-one]
460	5600	1400	310	150	3750	190	3400	CC(C)n1cc(-c2cc(-c3ccc4c(c3)CC(=O)N4C)cnc2N)ccc1=O [Example 42, 5-(2-amino-1′-isopropyl-6′-oxo-1′,6′-dihydro-[3,3′-bipyridin]-5-yl)-1-methylindolin-2-one]
87	610	410	50	60	940	80	520	COc1cc(-c2cncc(-c3ccc4c(c3)CC(=O)N4C)c2)cn(C(C)C)c1=O [Example 2, 5-(1′-Isopropyl-5′-methoxy-6′-oxo-1′,6′-dihydro-[3,3′-bipyridin]-5-yl)-1-methylindolin-2-one]
2200	> 10000	4200	1900	810	9300	740	5400	CN1C(=O)Cc2cc(-c3cncc(-c4ccc(=O)n(C)c4)c3)ccc21 [Example 19, 1-methyl-5-(1′-methyl-6′-oxo-1′,6′-dihydro-[3,3′-bipyridin]-5-yl)indolin-2-one]

Further lines, the molecule ahead of its results:

Compound	IC50 [1] [nM]	IC50 (ALK5 (aa162-503)) [nM]	IC50 (ALK1 (aa166-493)) [nM]	IC50 [2] [nM]	IC50 [3] [nM]	IC50 (ALK6 (aa168-495)) [nM]	IC50 [4] [nM]	IC50 (ALK3 (aa198-525)) [nM]
CC(C)n1cc(-c2cncc(-c3ccc4c(c3)CC(=O)N4CCCO)c2)ccc1=O [Example 47, 1-(3-hydroxypropyl)-5-(1′-isopropyl-6′-oxo-1′,6′-dihydro-[3,3′-bipyridin]-5-yl)indolin-2-one]	175	4200	1100	280	150	1500	140	1120
CC(C)n1cc(-c2cncc(-c3ccc4c(c3)C(F)(F)C(=O)N4C)c2)ccc1=O [Example 23, 3,3-Difluoro-5-(1′-isopropyl-6′-oxo-1′,6′-dihydro-[3,3′-bipyridin]-5-yl)-1-methylindolin-2-one]	1200	> 10000	5600	1200	870	4500	670	5800
CC(C)n1cc(-c2cncc(-c3cc(F)c4c(c3)CC(=O)N4C)c2)ccc1=O [Example 36, 7-Fluoro-5-(1′-isopropyl-6′-oxo-1′,6′-dihydro-[3,3′-bipyridin]-5-yl)-1-methylindolin-2-one]	350	9300	1300	390	230	2900	190	2400
CN1C(=O)Cc2cc(-c3cncc(-c4ccc(=O)n(C5CCCC5)c4)c3)ccc21 [Example 8, 5-(1′-cyclopentyl-6′-oxo-1′,6′-dihydro-[3,3′-bipyridin]-5-yl)-1-methylindolin-2-one]	200	9600	1500	150	120	5300	170	2400
CN1C(=O)Cc2cc(-c3cncc(-c4ccc(=O)n(C5CCC5)c4)c3)ccc21 [Example 6, 5-(1′-Cyclobutyl-6′-oxo-1′,6′-dihydro-[3,3′-bipyridin]-5-yl)-1-methylindolin-2-one]	230	5300	1700	660	180	2900	150	3600
CCC(CC)CN1C(=O)Cc2cc(-c3cncc(-c4ccc(=O)n(C(C)C)c4)c3)ccc21 [Example 40, 1-(2-ethylbutyl)-5-(1′-isopropyl-6′-oxo-1′,6′-dihydro-[3,3′-bipyridin]-5-yl)indolin-2-one]	94	4200	900	100	80	860	100	800
CC(C)n1cc(-c2cncc(-c3ccc4c(c3)CC(=O)N4CC3CCC3)c2)ccc1=O [Example 38, 1-(cyclobutylmethyl)-5-(1′-isopropyl-6′-oxo-1′,6′-dihydro-[3,3′-bipyridin]-5-yl)indolin-2-one]	130	3400	640	100	60	1100	60	540
CN1C(=O)Cc2cc(-c3cncc(-c4ccc(=O)n(CC(F)(F)F)c4)c3)ccc21 [Example 12, 1-methyl-5-(6′-oxo-1′-(2,2,2-trifluoroethyl)-1′,6′-dihydro-[3,3′-bipyridin]-5-yl)indolin-2-one]	1500	> 10000	6800	800	810	7000	800	> 15100
CCC(CC)Cn1cc(-c2cncc(-c3ccc4c(c3)CC(=O)N4C)c2)ccc1=O [Example 13, 5-(1′-(2-ethylbutyl)-6′-oxo-1′,6′-dihydro-[3,3′-bipyridin]-5-yl)-1-methylindolin-2-one]	680	> 10000	5300	790	570	> 10000	620	8500
